Experimental findings from the SangsterLogP compilation are described below.

This data set can be described thus: method code SF-AS, from Mayer, M.; Testa, B.; Van, H.; Bornand-Crausaz, A. (1982). Non-additivity amd intramolecular effects in the partition coefficient of omega-functionalized alkylpyridines. Eur J Med Chem, 17(5)453-459.
Regarding `OCCc1ccccn1`, the logP worked out at 0.12. For `NCCCc1ccccn1`, the logP was 0.49. The value for `NC(=O)CCc1ccccn1` was -0.27; that for `NCCCCCc1ccncc1` was 1.4; that for `NCCCc1ccncc1` was 0.4. The value for `NCCc1ccncc1` was -0.01; that for `NCc1ccccn1` was -0.21. The value for `NCCCCCc1ccccn1` was 1.32; that for `NC(=O)CCCCc1cccnc1` was 0.4. Compound `NCCc1ccccn1` came in with a logP of 0.08. The value for `OCCCCCc1ccncc1` was 1.33; that for `OCc1cccnc1` was -0.02; that for `NCCCc1ccccc1` was 1.83.

Turning to `OCCCCc1cccnc1`, the logP is 0.92. Consider `NCCCCc1cccnc1`, for which the logP was 0.88. In the case of `NCCCCc1ccccn1`, the logP was 0.86.

The compound `OCCCCCc1cccnc1` yielded a logP of 1.41. For `NCCc1cccnc1` the value was 0; for `NC(=O)CCc1ccncc1`, -0.25; for `OCCCCc1ccccn1`, 0.86. `NCc1ccncc1` showed a logP of -0.38. `NCCCc1cccnc1` yielded a logP of 0.44.

In the case of `OCc1ccccn1`, the logP was 0.06. For `OCCCCCc1ccccn1` the value was 1.28; for `NCCCCCc1cccnc1`, 1.41; for `OCCCc1ccncc1`, 0.58.

The compound `OCCCc1cccnc1` displayed a logP of 0.6. For `NCCCCc1ccncc1`, the logP amounted to 0.86. Take `NC(=O)CCCCc1ccncc1`: the logP was found to be 0.42.

`OCCCc1ccccn1` yielded a logP of 0.58. For `OCCCCc1ccncc1` the value was 0.9. For `OCCc1ccncc1` the value was 0.1; for `OCCc1cccnc1`, 0.12; for `NC(=O)CCc1cccnc1`, -0.26.
